From ChEMBL document CHEMBL4270621, “Discovery of long-chain salicylketoxime derivatives as monoacylglycerol lipase (MAGL) inhibitors” (Eur J Med Chem, 2018)
Active and inactive are the calls of the source. No cut-off for these calls is given here.

Key:
OVCAR-3 = assay: Antiproliferative activity against human OVCAR3 cells measured after 96 hrs; format: functional, cell-based; details: OVCAR-3, 96 h
Cannabinoid receptor 1 [1] = biological target: T1, Cannabinoid receptor 1 (Homo sapiens, UniProt P21554); assay: Displacement of [3H]CP55940 from recombinant human CB1 expressed crude membranes after 90 mins by liquid scintillation counting method
Cannabinoid receptor 1 [2] = biological target: T1, Cannabinoid receptor 1; assay: Displacement of [3H]CP55940 from recombinant human CB1 expressed in crude membranes at 10 uM after 90 mins by liquid scintillation counting method relative to control; format: cell membranes
[3] = biological target: T2, Fatty-acid amide hydrolase 1 (Homo sapiens, UniProt O00519); assay: Inhibition of FAAH in human U937 cells using [ethanolamine-1-3H]AEA as substrate pretreated for 30 mins followed by substrate addition and measured after 15 mins by liquid scintillation counting method; format: cell-based
T2 sequence (O00519 whole entry): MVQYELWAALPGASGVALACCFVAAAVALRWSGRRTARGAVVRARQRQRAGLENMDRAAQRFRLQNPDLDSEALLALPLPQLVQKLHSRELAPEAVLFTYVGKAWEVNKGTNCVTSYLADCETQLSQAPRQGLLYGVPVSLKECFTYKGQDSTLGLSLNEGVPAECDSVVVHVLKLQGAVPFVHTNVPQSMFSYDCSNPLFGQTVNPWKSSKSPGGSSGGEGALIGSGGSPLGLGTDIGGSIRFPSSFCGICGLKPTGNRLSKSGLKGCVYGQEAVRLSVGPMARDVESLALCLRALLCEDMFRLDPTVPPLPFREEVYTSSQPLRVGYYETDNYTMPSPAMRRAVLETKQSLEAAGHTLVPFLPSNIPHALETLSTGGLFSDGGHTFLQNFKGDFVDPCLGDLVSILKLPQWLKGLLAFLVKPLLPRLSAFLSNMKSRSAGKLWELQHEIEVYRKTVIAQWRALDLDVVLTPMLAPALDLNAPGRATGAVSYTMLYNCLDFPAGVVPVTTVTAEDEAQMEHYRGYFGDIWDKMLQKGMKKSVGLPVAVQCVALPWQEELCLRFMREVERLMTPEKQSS

SK-OV-3 = assay: Antiproliferative activity against human SKOV3 cells measured after 96 hrs; format: functional, cell-based; details: SK-OV-3, 96 h
Monoglyceride lipase [4] = biological target: T3, Monoglyceride lipase (Homo sapiens, UniProt Q99685); assay: Inhibition of recombinant human C-terminal His-tagged MAGL expressed in Escherichia coli using 4-NPA as substrate measured after 30 mins
T3 sequence (Q99685 whole entry): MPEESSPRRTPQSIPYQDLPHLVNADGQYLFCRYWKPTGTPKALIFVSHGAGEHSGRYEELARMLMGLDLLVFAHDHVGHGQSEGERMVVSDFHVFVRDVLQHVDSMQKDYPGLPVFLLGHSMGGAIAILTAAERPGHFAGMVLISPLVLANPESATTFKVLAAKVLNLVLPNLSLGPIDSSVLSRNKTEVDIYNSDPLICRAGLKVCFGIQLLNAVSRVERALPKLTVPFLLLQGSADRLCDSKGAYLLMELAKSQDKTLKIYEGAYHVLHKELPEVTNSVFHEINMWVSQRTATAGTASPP

Caov-3 cell line = assay: Antiproliferative activity against human Caov3 cells measured after 96 hrs; format: functional, cell-based; details: Caov-3, 96 h
MDA-MB-231 = assay: Antiproliferative activity against human MDA-MB-231 cells measured after 96 hrs; format: functional, cell-based; details: MDA-MB-231, 96 h
HCT-116 = assay: Antiproliferative activity against human HCT116 cells measured after 96 hrs; format: functional, cell-based; details: HCT-116, 96 h
[5] = biological target: T4, Estrogen receptor (Homo sapiens) (UniProt P03372); assay: Displacement of [3H]-estradiol from full length human untagged ERalpha expressed in Sf insect cells after 18 to 24 hrs by radiometric method relative to estradiol
T4 sequence (whole entry): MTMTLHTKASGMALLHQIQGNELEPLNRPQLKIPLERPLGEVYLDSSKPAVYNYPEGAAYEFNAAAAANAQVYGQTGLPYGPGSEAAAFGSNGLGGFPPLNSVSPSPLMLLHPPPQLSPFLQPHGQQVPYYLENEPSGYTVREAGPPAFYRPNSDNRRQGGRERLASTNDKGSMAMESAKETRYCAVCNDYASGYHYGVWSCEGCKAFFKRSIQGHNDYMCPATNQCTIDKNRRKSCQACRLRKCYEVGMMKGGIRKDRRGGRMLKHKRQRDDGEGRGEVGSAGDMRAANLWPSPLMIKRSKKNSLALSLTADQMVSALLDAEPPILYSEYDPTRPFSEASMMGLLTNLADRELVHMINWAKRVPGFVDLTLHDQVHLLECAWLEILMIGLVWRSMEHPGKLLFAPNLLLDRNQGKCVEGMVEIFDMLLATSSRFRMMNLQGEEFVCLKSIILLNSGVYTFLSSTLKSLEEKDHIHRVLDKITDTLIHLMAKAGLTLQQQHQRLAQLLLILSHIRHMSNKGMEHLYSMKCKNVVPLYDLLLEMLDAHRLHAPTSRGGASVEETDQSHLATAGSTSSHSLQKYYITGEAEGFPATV

[6] = biological target: Estrogen receptor beta (Homo sapiens) (UniProt Q92731); assay: Displacement of [3H]-estradiol from full length human ERbeta expressed in insect cells after 18 to 24 hrs by radiometric method relative to estradiol
[7] = biological target: T5, Monoglyceride lipase (Homo sapiens) (UniProt Q99685); assay: Reversible inhibition of recombinant human C-terminal His-tagged MAGL expressed in Escherichia coli at 20 uM using 4-NPA as substrate pretreated for 60 mins followed by 40 times compound dilution for 15 mins and subsequent substrate addition measured after 30 mins
T5 sequence (whole entry): T3 sequence (Q99685 whole entry)

[8] = biological target: T5, Monoglyceride lipase (Homo sapiens); assay: Reversible inhibition of recombinant human C-terminal His-tagged MAGL expressed in Escherichia coli using 4-NPA as substrate pretreated up to 60 mins followed by substrate addition and measured after 30 mins
Monoglyceride lipase [9] = biological target: T3, Monoglyceride lipase; assay: Inhibition of recombinant human C-terminal His-tagged MAGL expressed in Escherichia coli using 4-NPA as substrate pretreated with substrate 15 mins in presence of DTT followed by enzyme addition measured after 30 mins
Monoglyceride lipase [10] = biological target: T3, Monoglyceride lipase; assay: Inhibition of recombinant human C-terminal His-tagged MAGL expressed in Escherichia coli using 4-NPA as substrate pretreated with substrate 15 mins followed by enzyme addition measured after 30 mins

T1 sequence (P21554 whole entry): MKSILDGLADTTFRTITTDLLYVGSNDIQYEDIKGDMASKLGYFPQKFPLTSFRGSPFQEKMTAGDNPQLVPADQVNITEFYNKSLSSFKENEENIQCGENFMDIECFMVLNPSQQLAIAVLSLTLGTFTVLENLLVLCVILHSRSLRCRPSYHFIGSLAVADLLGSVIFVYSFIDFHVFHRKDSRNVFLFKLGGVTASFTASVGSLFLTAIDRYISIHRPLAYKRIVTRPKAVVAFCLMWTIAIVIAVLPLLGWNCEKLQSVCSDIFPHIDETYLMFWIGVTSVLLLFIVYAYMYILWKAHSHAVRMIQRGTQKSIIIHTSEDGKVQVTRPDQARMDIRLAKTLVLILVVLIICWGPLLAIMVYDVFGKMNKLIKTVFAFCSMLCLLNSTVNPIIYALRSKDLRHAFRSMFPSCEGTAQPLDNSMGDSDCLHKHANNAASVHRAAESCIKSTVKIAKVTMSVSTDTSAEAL
Sequence of Estrogen receptor beta (Homo sapiens) (Q92731 whole entry): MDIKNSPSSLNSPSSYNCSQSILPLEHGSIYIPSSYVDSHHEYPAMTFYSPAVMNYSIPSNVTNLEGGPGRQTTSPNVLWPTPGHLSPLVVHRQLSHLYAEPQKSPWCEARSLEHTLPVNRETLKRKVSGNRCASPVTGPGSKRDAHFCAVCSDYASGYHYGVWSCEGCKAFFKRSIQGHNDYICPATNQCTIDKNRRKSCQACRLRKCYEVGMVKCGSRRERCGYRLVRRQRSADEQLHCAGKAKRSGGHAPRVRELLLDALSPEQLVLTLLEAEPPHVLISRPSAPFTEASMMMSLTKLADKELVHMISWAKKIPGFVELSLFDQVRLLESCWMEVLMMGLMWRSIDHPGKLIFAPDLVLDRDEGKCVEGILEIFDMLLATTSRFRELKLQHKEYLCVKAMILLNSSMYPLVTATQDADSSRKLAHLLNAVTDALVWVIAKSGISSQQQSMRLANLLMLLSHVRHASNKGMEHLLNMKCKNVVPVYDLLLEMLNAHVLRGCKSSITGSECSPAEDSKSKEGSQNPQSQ

**Q.** What does the source list for CCCCCCCCCCC/C(=N\O)c1cc(-c2ccc(O)c(F)c2)ccc1O?
**A.** IC50 (OVCAR-3): 40 µM; IC50 (Cannabinoid receptor 1 [1]): 2.6 µM; inhibition (Cannabinoid receptor 1 [2]): 5%; IC50 [3]: 4.1 µM; IC50 (SK-OV-3): 20 µM; IC50 (Monoglyceride lipase [4]): 0.71 µM; IC50 (Caov-3 cell line): 11 µM; IC50 (MDA-MB-231): 45 µM; IC50 (HCT-116): 7.6 µM

**Q.** How did the RBA [5] turn out when CC/C(=N\O)c1cc(-c2ccc(O)c(F)c2)ccc1O was run?
**A.** 2.1%

**Q.** And the IC50 (Monoglyceride lipase [4])?
**A.** 11 µM

**Q.** And the RBA [6]?
**A.** 37%

**Q.** CCCCCCCCCCCCCCC/C(=N\O)c1cc(-c2ccc(OC)c(F)c2)ccc1O was tested. Which IC50 (Monoglyceride lipase [4]) did it give?
**A.** > 200 µM

**Q.** How did the IC50 (OVCAR-3) turn out when COc1nn(-c2ccc(NC(=O)OCc3ccccc3)c(C)c2)c(=O)o1 was run?
**A.** 50 µM

**Q.** And the IC50 (SK-OV-3)?
**A.** 34 µM

**Q.** And the IC50 (Caov-3 cell line)?
**A.** 92 µM

**Q.** And the IC50 (MDA-MB-231)?
**A.** 42 µM

**Q.** What about the IC50 (HCT-116) of the same molecule?
**A.** 89 µM

**Q.** What does the source list for CCCCCCCCCCCCC/C(=N\O)c1cc(-c2ccc(O)c(F)c2)ccc1O?
**A.** IC50 (OVCAR-3): 28 µM; IC50 (Cannabinoid receptor 1 [1]): 4.1 µM; inhibition (Cannabinoid receptor 1 [2]): 5%; IC50 [3]: 8.7 µM; inhibition [7]: Active; IC50 (SK-OV-3): 26 µM; IC50 (Monoglyceride lipase [4]): 0.68 µM; IC50 (Caov-3 cell line): 14 µM; inhibition [8]: Active; IC50 (Monoglyceride lipase [9]): 700 nM; IC50 (MDA-MB-231): 73 µM; IC50 (Monoglyceride lipase [10]): 680 nM; IC50 (HCT-116): 11 µM

**Q.** How did the IC50 (Monoglyceride lipase [4]) turn out when CCCC/C(=N\O)c1cc(-c2ccc(OC)cc2)ccc1O was run?
**A.** 119 µM

**Q.** Which IC50 (Monoglyceride lipase [4]) does the source give for CCCCCCCCCCCCC/C(=N\O)c1cc(-c2ccc(OC)c(F)c2)ccc1O here?
**A.** > 200 µM

**Q.** For C/C(=N\O)c1cc(-c2ccc(O)c(F)c2)ccc1O, which IC50 (Monoglyceride lipase [4]) is on record?
**A.** 34 µM
